Source: patent US10947271B2, “Antibacterial agents” (THE UNIVERSITY OF QUEENSLAND, priority 2014, dated 2021)

Legend:
[1] = tested on: Streptococcus pneumoniae MDR ATCC 700677; assay: MIC assay, S. pneumoniae MDR ATCC 700677; format: cell-based; conditions: 24 h incubation, visual reading
Summary of the method: (§1)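 Mid-log cultures in MHB were added at 5×10e5 CFU/mL to compounds diluted twofold from 8 to 0.003 μg/ml. Visual inspection after 24 h incubation at 37° C. gave the MIC, the lowest concentration without visible growth.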

[2] = tested on: Staphylococcus aureus MRSA ATCC 43300; assay: MIC assay, S. aureus MRSA ATCC 43300; format: cell-based; conditions: 24 h incubation, visual reading
Summary of the method: as §1

MRSA (Strain ATCC 43300) = assay: Murine thigh infection model (MRSA); format: in vivo, Staphylococcus aureus; conditions: neutropenic CD1 mice
Protocol: Summary: Adult (8 week old) female CD1 mice were made neutropenic by two injections of cyclophosphamide 4 days and 1 day prior to infection. An inoculum of 10^5 cfu MRSA (Strain ATCC 43300) was injected intramuscularly into both left and right thighs of all mice. […] After an additional two hours, a 50 μL sample of blood was obtained from the tail bleed to analyse for presence of antibiotic compound. […] Thighs were then removed, weighed and homogenised in a fixed volume of saline. The homogenate solution was filtered, diluted and seeded onto agar plates, which were incubated overnight at 37° C. Colony counts were used to establish the cfu in the thigh homogenates, the cfu/thigh, and the cfu/g of thigh.
Compound preparation: Cyclophosphamide monohydrate (Sigma) was dissolved in sterile saline to a concentration of 30 mg/mL. Likewise, vancomycin (Sigma) and MCC compounds were also dissolved in sterile saline to a final concentration of 60 mg/mL and 18.5 mg/mL respectively. All compounds were prepared in low binding Eppendorf tubes and kept at −20° C. until used.
In vivo experimental assay: Eight week old female outbred CD1 mice (UQBR-AIBN) were rendered neutropenic by injecting two doses of cyclophosphamide intraperitoneally 4 days (150 mg/kg) and 1 day (100 mg/kg) prior to experimental infection. The infection model using MRSA was established by intramuscular injection of 50 μL of early-log-phase bacterial MRSA suspension (around 2×10^6 cfu/mL) in saline into both thigh muscles. […] Untreated animals received equivalent volume of saline (Baxter). The mice were monitored for signs of normal behaviour (i.e. grooming, eating, drinking, sleeping, and alertness) during and following dosing. Two hours after saline/antibiotic treatment, 0.05 mL of blood was collected by tail incision. 24 hours after MRSA infection, mice were euthanized and blood collected from the heart by cardiac puncture (saline group) or by tail incision (Vancomycin and MCC compound treated groups) as outlined in FIG. 1. For each mouse, both thighs were collected aseptically by cutting the leg at the hip and knee, placed in 10 mL of cold sterile saline and the individual weight of each thigh recorded.
Preparation of injectable MRSA solution: An MRSA subculture bacterial isolate (ATCC43300) was taken from the storage at −80° C. and freshly seeded on agar plates for overnight (O/N) growth. From the O/N culture preparation, a single colony was diluted into 10-12 mL of Mueller Hinton broth (MHB) and incubated O/N at 37° C. A log-phase subculture was obtained by adding 100 μL of O/N subculture in 10 mL MHB and incubated for a further 2-3 hours. Finally, the OD600 value of the bacterial suspension was determined and the colony forming units per millilitre (cfu/mL) extrapolated. A full dilution of the bacterial cell suspension in saline was achieved by washing (3220×g for 10 min) and the OD600 in saline determined. The suspension was then diluted out accordingly in order to achieve a 2×10^6 cfu/mL solution (10^5 cfu in 50 μL/thigh).
Thus, 10 μL of the injectable MRSA suspension was diluted down to 10-1000 fold, each dilution plated out onto agar plates and incubated at 37° C. for 24 hours.
Thigh homogenates and CFU determination: Thighs were homogenized at 20,000 rpm for 15 seconds using a Polytron MR2500E using a […] probe (all Kinematica).

[3] = tested on: Enterococcus faecium MDR Van A ATCC 51559; assay: MIC assay, E. faecium MDR Van A ATCC 51559; format: cell-based; conditions: 24 h incubation, visual reading
Summary of the method: as §1

[4] = single subcutaneous dose 10 mg/kg
[5] = single subcutaneous dose 50 mg/kg

| Compound | Minimum Inhibitory Concentration (MIC) S. pneumoniae ATCC 700677 [1] | Minimum Inhibitory Concentration (MIC) Staph. aureus ATCC43300 [2] | Average Reduction log Δcfu MRSA/thigh after 26 h (MRSA (Strain ATCC 43300); [4]) | Minimum Inhibitory Concentration (MIC) E. faecium ATCC51559 [3] | Average Reduction log Δcfu MRSA/thigh after 26 h (MRSA (Strain ATCC 43300); [5]) |
| --- | --- | --- | --- | --- | --- |
| CCCCCCCCC(=O)N[C@@H](CCCCN)C(=O)N[C@@H](CCCCN)C(=O)NCCNC(=O)[C@H]1NC(=O)[C@H]2NC(=O)[C@H](NC(=O)[C@@H]3NC(=O)[C@H](CC(N)=O)NC(=O)[C@H](NC(=O)[C@@H](CC(C)C)NC)[C@H](O)c4ccc(c(Cl)c4)Oc4cc3cc(c4O[C@@H]3O[C@H](CO)[C@@H](O)[C@H](O)[C@H]3O[C@H]3C[C@](C)(N)[C@H](O)[C@H](C)O3)Oc3ccc(cc3Cl)[C@H]2O)c2ccc(O)c(c2)-c2c(O)cc(O)cc21 [MCC_005165] | xxxx (xxxx = 0.01-<0.1) | xxxx (xxxx = 0.01-<0.1) | xxx (xxx = 4-6) | x (x = >4) |  |
| CCCCCCCCCC(=O)N[C@@H](CCCCN)C(=O)N[C@@H](CCCCN)C(=O)NCCNC(=O)[C@H]1NC(=O)[C@H]2NC(=O)[C@H](NC(=O)[C@@H]3NC(=O)[C@H](CC(N)=O)NC(=O)[C@H](NC(=O)[C@@H](CC(C)C)NC)[C@H](O)c4ccc(c(Cl)c4)Oc4cc3cc(c4O[C@@H]3O[C@H](CO)[C@@H](O)[C@H](O)[C@H]3O[C@H]3C[C@](C)(N)[C@H](O)[C@H](C)O3)Oc3ccc(cc3Cl)[C@H]2O)c2ccc(O)c(c2)-c2c(O)cc(O)cc21 [MCC_005166] | xxxx (xxxx = 0.01-<0.1) | xxxx (xxxx = 0.01-<0.1) | xxx (xxx = 4-6) | x (x = >4) |  |
| CCCCCCCCCC(=O)N[C@@H](CCCCN)C(=O)N[C@@H](CCCCN)C(=O)N[C@@H](CCCCN)C(=O)NCCNC(=O)[C@H]1NC(=O)[C@H]2NC(=O)[C@H](NC(=O)[C@@H]3NC(=O)[C@H](CC(N)=O)NC(=O)[C@H](NC(=O)[C@@H](CC(C)C)NC)[C@H](O)c4ccc(c(Cl)c4)Oc4cc3cc(c4O[C@@H]3O[C@H](CO)[C@@H](O)[C@H](O)[C@H]3O[C@H]3C[C@](C)(N)[C@H](O)[C@H](C)O3)Oc3ccc(cc3Cl)[C@H]2O)c2ccc(O)c(c2)-c2c(O)cc(O)cc21 [MCC_005181] | xxxx (xxxx = 0.01-<0.1) | xxxxx (xxxxx = <0.01) | xx (xx = 2-4) | xx (xx = 1-4) |  |
| CCCCCCCCCC(=O)N[C@@H](CCCCN)C(=O)NCCCNC(=O)[C@H]1NC(=O)[C@H]2NC(=O)[C@H](NC(=O)[C@@H]3NC(=O)[C@H](CC(N)=O)NC(=O)[C@H](NC(=O)[C@@H](CC(C)C)NC)[C@H](O)c4ccc(c(Cl)c4)Oc4cc3cc(c4O[C@@H]3O[C@H](CO)[C@@H](O)[C@H](O)[C@H]3O[C@H]3C[C@](C)(N)[C@H](O)[C@H](C)O3)Oc3ccc(cc3Cl)[C@H]2O)c2ccc(O)c(c2)-c2c(O)cc(O)cc21 [MCC_005200] | xxxx (xxxx = 0.01-<0.1) | xxxx (xxxx = 0.01-<0.1) | xx (xx = 2-4) | xx (xx = 1-4) |  |
| CCCCCCCCCC(=O)N[C@@H](CCCCN)C(=O)N[C@@H](CCCCN)C(=O)N[C@@H](CCCCN)C(=O)NCCCNC(=O)[C@H]1NC(=O)[C@H]2NC(=O)[C@H](NC(=O)[C@@H]3NC(=O)[C@H](CC(N)=O)NC(=O)[C@H](NC(=O)[C@@H](CC(C)C)NC)[C@H](O)c4ccc(c(Cl)c4)Oc4cc3cc(c4O[C@@H]3O[C@H](CO)[C@@H](O)[C@H](O)[C@H]3O[C@H]3C[C@](C)(N)[C@H](O)[C@H](C)O3)Oc3ccc(cc3Cl)[C@H]2O)c2ccc(O)c(c2)-c2c(O)cc(O)cc21 [MCC_005201] | xxxx (xxxx = 0.01-<0.1) | xxxx (xxxx = 0.01-<0.1) | xx (xx = 2-4) | xx (xx = 1-4) |  |
| CCCCCCCC(=O)N[C@@H](CCCCN)C(=O)NCCCNC(=O)[C@H]1NC(=O)[C@H]2NC(=O)[C@H](NC(=O)[C@@H]3NC(=O)[C@H](CC(N)=O)NC(=O)[C@H](NC(=O)[C@@H](CC(C)C)NC)[C@H](O)c4ccc(c(Cl)c4)Oc4cc3cc(c4O[C@@H]3O[C@H](CO)[C@@H](O)[C@H](O)[C@H]3O[C@H]3C[C@](C)(N)[C@H](O)[C@H](C)O3)Oc3ccc(cc3Cl)[C@H]2O)c2ccc(O)c(c2)-c2c(O)cc(O)cc21 [MCC_005202] | xxx (xxx = 0.1-<1) | xxx (xxx = 0.1-<1) | xx (xx = 2-4) | x (x = >4) |  |
| CCCCCCCCC(=O)N[C@@H](CCCCN)C(=O)N[C@@H](CCCCNC(=O)[C@H]1NC(=O)[C@H]2NC(=O)[C@H](NC(=O)[C@@H]3NC(=O)[C@H](CC(N)=O)NC(=O)[C@H](NC(=O)[C@@H](CC(C)C)NC)[C@H](O)c4ccc(c(Cl)c4)Oc4cc3cc(c4O[C@@H]3O[C@H](CO)[C@@H](O)[C@H](O)[C@H]3O[C@H]3C[C@](C)(N)[C@H](O)[C@H](C)O3)Oc3ccc(cc3Cl)[C@H]2O)c2ccc(O)c(c2)-c2c(O)cc(O)cc21)C(=O)O [MCC_005223] | xx (xx = 1-4) | xxx (xxx = 0.1-<1) | x (x = 0-2) | x (x = >4) |  |
| CCCCCCCCC(=O)N[C@@H](CCCCN)C(=O)N[C@@H](CCCCN)C(=O)N[C@@H](CCCCNC(=O)[C@H]1NC(=O)[C@H]2NC(=O)[C@H](NC(=O)[C@@H]3NC(=O)[C@H](CC(N)=O)NC(=O)[C@H](NC(=O)[C@@H](CC(C)C)NC)[C@H](O)c4ccc(c(Cl)c4)Oc4cc3cc(c4O[C@@H]3O[C@H](CO)[C@@H](O)[C@H](O)[C@H]3O[C@H]3C[C@](C)(N)[C@H](O)[C@H](C)O3)Oc3ccc(cc3Cl)[C@H]2O)c2ccc(O)c(c2)-c2c(O)cc(O)cc21)C(=O)O [MCC_005226] | xxx (xxx = 0.1-<1) | xxx (xxx = 0.1-<1) | x (x = 0-2) | x (x = >4) |  |
| CNC(CC(C)C)C(=O)NC1C(=O)NC(CC(N)=O)C(=O)NC2C(=O)NC3C(=O)NC(C(=O)NC(C(=O)NCCCNC(=O)C(CCCCN)NC(=O)C(CCCCN)NC(=O)c4ccc(Cl)cc4)c4cc(O)cc(O)c4-c4cc3ccc4O)C(O)c3ccc(c(Cl)c3)Oc3cc2cc(c3OC2OC(CO)C(O)C(O)C2OC2CC(C)(N)C(O)C(C)O2)Oc2ccc(cc2Cl)C1O (centres unmarked) [MCC_005362] | xxx (xxx = 0.1-<1) | xxx (xxx = 0.1-<1) | x (x = 0-2) | xx (xx = 1-4) | xxx (xxx = 4-6) |
| CNC(CC(C)C)C(=O)NC1C(=O)NC(CC(N)=O)C(=O)NC2C(=O)NC3C(=O)NC(C(=O)NC(C(=O)NCCCNC(=O)C(CCCCN)NC(=O)C(CCCCN)NC(=O)CC4CCCCC4)c4cc(O)cc(O)c4-c4cc3ccc4O)C(O)c3ccc(c(Cl)c3)Oc3cc2cc(c3OC2OC(CO)C(O)C(O)C2OC2CC(C)(N)C(O)C(C)O2)Oc2ccc(cc2Cl)C1O (centres unmarked) [MCC_005363] | xxx (xxx = 0.1-<1) | xxx (xxx = 0.1-<1) |  | x (x = >4) | xxx (xxx = 4-6) |
